Data: patent US20070128217A1 (priority 2003, published 2007)

Legend:
[1] = system: control sera (pooled serum of ten healthy LUMC hospital workers; commercial negative donor pooled serum from the Dutch bloodbank); type: binding, human; set-up: Binding of Control serum LUMC to linear peptides / Binding of Control serum Blood-bank to linear peptides / Binding of Control serum LUMC to looped peptides / Binding of Control Serum Blood-Bank to Looped peptides / Binding of Control serum LUMC to linear peptides of the protein M of SARS-CoV Urbani / Binding of Control serum Blood-bank to linear peptides of the protein M of SARS-CoV Urbani / Binding of Control serum LUMC to looped peptides of the protein M of SARS-CoV Urbani / Binding of Control Serum Blood-Bank to Looped peptides of the protein M of SARS-CoV Urbani: unit not given here
[2] = system: antibodies in sera from SARS patients (sera 1a, 1b, 2, 6, 37, 62, London, SARS-yellow, SARS-green); type: binding, human; set-up: Binding of serum 6 to linear peptides of protein X1 of SARS-CoV Urbani / Binding of serum 37 to linear peptides of protein X1 of SARS-CoV Urbani / Binding of serum 6 to looped/cyclic peptide (PEPSCAN-ELISA) / Binding of serum 37 to looped/cyclic peptide (PEPSCAN-ELISA) / Binding of serum 37 to looped/cyclic peptides of protein X1 of SARS-CoV Urbani / Binding of serum 6 to linear peptides of protein X2 / Binding of serum 37 to linear peptides of protein X2 / Binding of serum 37 to looped/cyclic peptides of protein X2 of SARS-CoV Urbani / Binding of serum 6 to linear peptides of protein M of SARS-CoV Urbani / Binding of serum 37 to linear peptides of protein M of SARS-CoV Urbani / Binding of serum 6 to looped/cyclic peptides of protein M of SARS-CoV Urbani / Binding of serum 37 to looped/cyclic peptides of protein M of SARS-CoV Urbani / Binding of serum 6 to linear peptides of protein X3 of SARS-CoV Urbani / Binding of serum 37 to linear peptides of protein X3 of SARS-CoV Urbani / Binding of serum 37 to looped/cyclic peptides of protein X3 of SARS-CoV Urbani / Binding of serum 6 to linear peptides of protein X4 of SARS-CoV Urbani / Binding of serum 37 to linear peptides of protein X4 of SARS-CoV Urbani / Binding of serum 37 to looped/cyclic peptides of protein X4 of SARS-CoV Urbani / Binding of serum 6 to linear peptides of protein X5 of SARS-CoV Urbani / Binding of serum 37 to linear peptides of protein X5 of SARS-CoV Urbani / Binding of serum 37 to looped/cyclic peptides of protein X5 of SARS-CoV Urbani / Binding of serum 6 to linear peptides of protein N of SARS-CoV Urbani / Binding of serum 37 to linear peptides of protein N of SARS-CoV Urbani / Binding of serum 6 to linear peptide (PEPSCAN-ELISA) / Binding of serum 1a to looped/cyclic peptides of protein N of SARS-CoV Urbani / Binding of serum 1b to looped/cyclic peptides of protein N of SARS-CoV Urbani / Binding of serum 2 to looped/cyclic peptides of protein N of SARS-CoV Urbani / Binding of serum 6 to looped/cyclic peptides of protein N of SARS-CoV Urbani / Binding of serum 37 to looped/cyclic peptides of protein N of SARS-CoV Urbani / Binding of serum 62 to looped/cyclic peptides of protein N of SARS-CoV Urbani / Binding of serum London to looped/cyclic peptides of protein N of SARS-CoV Urbani / Binding of serum SARS-green to looped/cyclic peptides of protein N of SARS-CoV Urbani: unit not given here
[3] = system: rabbit serum obtained by immunizing a rabbit with the SARS-CoV strain Frankfurt 1; type: binding; set-up: Binding of a rabbit serum to linear peptides / Binding of a rabbit serum to looped peptides / Rabbit serum linear peptides / Rabbit serum looped peptides / Binding of a rabbit serum to linear peptides of protein N of SARS-CoV Urbani (Rabbit serum linear peptides) / Binding of a rabbit serum to looped/cyclic peptides of protein N of SARS-CoV Urbani (Rabbit serum looped peptides): unit not given here
[4] = system: recombinant human anti-SARS-CoV antibody 03-018; type: binding; set-up: Binding of antibody 03-018 to linear peptides of the N protein of SARS-CoV Urbani / Binding of antibody 03-018 to looped/cyclic peptides of the N protein of SARS-CoV Urbani: unit not given here

ITFGGPTDSTDNNQN
0.1: Binding of serum 1b to linear peptides of protein N of SARS-CoV Urbani [2] | Binding of serum 2 to linear peptides of protein N of SARS-CoV Urbani [2] | Binding of serum 6 to linear peptides of protein N of SARS-CoV Urbani [2] | Binding of a rabbit serum to linear peptides of protein N of SARS-CoV Urbani (Rabbit serum linear peptides) [3]
0.2: Binding of serum 1a to linear peptides of protein N of SARS-CoV Urbani [2] | Binding of serum 1b to looped/cyclic peptides of protein N of SARS-CoV Urbani [2] | Binding of serum 6 to looped/cyclic peptides of protein N of SARS-CoV Urbani [2]
recognized: Recognition of the peptide by antibody 03-018 [4]
0.3: Binding of serum 1a to looped/cyclic peptides of protein N of SARS-CoV Urbani [2] | Binding of serum 2 to looped/cyclic peptides of protein N of SARS-CoV Urbani [2] | Binding of serum SARS-green to linear peptides of protein N of SARS-CoV Urbani [2] | Binding of serum SARS-yellow to looped/cyclic peptides of protein N of SARS-CoV Urbani [2] | Binding of a rabbit serum to looped/cyclic peptides of protein N of SARS-CoV Urbani (Rabbit serum looped peptides) [3]
0.4: Binding of serum London to looped/cyclic peptides of protein N of SARS-CoV Urbani [2] | Binding of serum SARS-yellow to linear peptides of protein N of SARS-CoV Urbani [2]
0.5: Binding of Control serum Blood-bank to linear peptides [1] | Binding of serum 62 to looped/cyclic peptides of protein N of SARS-CoV Urbani [2] | Binding of serum London to linear peptides of protein N of SARS-CoV Urbani [2]
0.6: Binding of Control serum LUMC to linear peptides [1] | Binding of serum 37 to looped/cyclic peptides of protein N of SARS-CoV Urbani [2] | Binding of serum 62 to linear peptides of protein N of SARS-CoV Urbani [2]
0.7: Binding of Control Serum Blood-Bank to Looped peptides [1] | Binding of Control serum LUMC to looped peptides [1] | Binding of serum 37 to linear peptides of protein N of SARS-CoV Urbani [2] | Binding of serum SARS-green to looped/cyclic peptides of protein N of SARS-CoV Urbani [2]

KDHIGTRNPNNNAAT
0.2: Binding of serum 1b to linear peptides of protein N of SARS-CoV Urbani [2] | Binding of a rabbit serum to looped/cyclic peptides of protein N of SARS-CoV Urbani (Rabbit serum looped peptides) [3] | Binding of antibody 03-018 to looped/cyclic peptides of the N protein of SARS-CoV Urbani [4]
0.1: Binding of serum SARS-green to looped/cyclic peptides of protein N of SARS-CoV Urbani [2] | Binding of a rabbit serum to linear peptides of protein N of SARS-CoV Urbani (Rabbit serum linear peptides) [3] | Binding of antibody 03-018 to linear peptides of the N protein of SARS-CoV Urbani [4]
0.3: Binding of serum 1a to linear peptides of protein N of SARS-CoV Urbani [2] | Binding of serum 1b to looped/cyclic peptides of protein N of SARS-CoV Urbani [2] | Binding of serum 6 to linear peptides of protein N of SARS-CoV Urbani [2] | Binding of serum SARS-yellow to looped/cyclic peptides of protein N of SARS-CoV Urbani [2]
0.8: Binding of Control serum LUMC to linear peptides [1] | Binding of serum 62 to linear peptides of protein N of SARS-CoV Urbani [2] | Binding of serum SARS-yellow to linear peptides of protein N of SARS-CoV Urbani [2]
0.4: Binding of serum 1a to looped/cyclic peptides of protein N of SARS-CoV Urbani [2] | Binding of serum 2 to linear peptides of protein N of SARS-CoV Urbani [2] | Binding of serum 6 to looped/cyclic peptides of protein N of SARS-CoV Urbani [2] | Binding of serum 62 to looped/cyclic peptides of protein N of SARS-CoV Urbani [2] | Binding of serum London to looped/cyclic peptides of protein N of SARS-CoV Urbani [2]
0.9: Binding of Control serum Blood-bank to linear peptides [1] | Binding of serum 37 to linear peptides of protein N of SARS-CoV Urbani [2]
0.6: Binding of Control Serum Blood-Bank to Looped peptides [1] | Binding of Control serum LUMC to looped peptides [1]
0.5: Binding of serum 2 to looped/cyclic peptides of protein N of SARS-CoV Urbani [2] | Binding of serum 37 to looped/cyclic peptides of protein N of SARS-CoV Urbani [2] | Binding of serum London to linear peptides of protein N of SARS-CoV Urbani [2] | Binding of serum SARS-green to linear peptides of protein N of SARS-CoV Urbani [2]

KDKKKKTDEAQPLPQ
0.5: Control Serum Blood-Bank Looped peptides [1] | Binding of serum SARS-green to linear peptides of protein N of SARS-CoV Urbani [2] | Binding of serum SARS-yellow to linear peptides of protein N of SARS-CoV Urbani [2]
0.0: Binding of a rabbit serum to looped/cyclic peptides of protein N of SARS-CoV Urbani (Rabbit serum looped peptides) [3]
0.4: Control serum LUMC looped peptides [1] | Binding of serum 37 to looped/cyclic peptides of protein N of SARS-CoV Urbani [2] | Binding of serum London to looped/cyclic peptides of protein N of SARS-CoV Urbani [2]
0.6: Control serum Blood-bank linear peptides [1] | Control serum LUMC linear peptides [1] | Binding of serum 62 to linear peptides of protein N of SARS-CoV Urbani [2] | Binding of serum London to linear peptides of protein N of SARS-CoV Urbani [2]
0.7: Binding of serum 37 to linear peptides of protein N of SARS-CoV Urbani [2]
0.1: Binding of serum 1b to linear peptides of protein N of SARS-CoV Urbani [2] | Binding of serum 1b to looped/cyclic peptides of protein N of SARS-CoV Urbani [2] | Binding of serum SARS-green to looped/cyclic peptides of protein N of SARS-CoV Urbani [2] | Binding of serum SARS-yellow to looped/cyclic peptides of protein N of SARS-CoV Urbani [2] | Binding of a rabbit serum to linear peptides of protein N of SARS-CoV Urbani (Rabbit serum linear peptides) [3] | Binding of antibody 03-018 to linear peptides of the N protein of SARS-CoV Urbani [4]
0.3: Binding of serum 62 to looped/cyclic peptides of protein N of SARS-CoV Urbani [2]
0.2: Binding of serum 1a to linear peptides of protein N of SARS-CoV Urbani [2] | Binding of serum 1a to looped/cyclic peptides of protein N of SARS-CoV Urbani [2] | Binding of serum 2 to linear peptides of protein N of SARS-CoV Urbani [2] | Binding of serum 2 to looped/cyclic peptides of protein N of SARS-CoV Urbani [2] | Binding of serum 6 to linear peptides of protein N of SARS-CoV Urbani [2] | Binding of serum 6 to looped/cyclic peptides of protein N of SARS-CoV Urbani [2] | Binding of antibody 03-018 to looped/cyclic peptides of the N protein of SARS-CoV Urbani [4]

KDNVILLNKHIDAYK
0.5: Control Serum Blood-Bank Looped peptides [1] | Control serum LUMC looped peptides [1]
0.8: Control serum Blood-bank linear peptides [1] | Binding of serum 62 to linear peptides of protein N of SARS-CoV Urbani [2] | Binding of serum SARS-yellow to linear peptides of protein N of SARS-CoV Urbani [2]
0.2: Binding of serum 1b to linear peptides of protein N of SARS-CoV Urbani [2] | Binding of serum 1b to looped/cyclic peptides of protein N of SARS-CoV Urbani [2] | Binding of serum 2 to looped/cyclic peptides of protein N of SARS-CoV Urbani [2] | Binding of a rabbit serum to linear peptides of protein N of SARS-CoV Urbani (Rabbit serum linear peptides) [3] | Binding of antibody 03-018 to looped/cyclic peptides of the N protein of SARS-CoV Urbani [4]
0.6: Binding of serum London to linear peptides of protein N of SARS-CoV Urbani [2]
0.7: Control serum LUMC linear peptides [1] | Binding of serum 37 to linear peptides of protein N of SARS-CoV Urbani [2]
0.1: Binding of serum 6 to looped/cyclic peptides of protein N of SARS-CoV Urbani [2] | Binding of serum SARS-green to looped/cyclic peptides of protein N of SARS-CoV Urbani [2] | Binding of antibody 03-018 to linear peptides of the N protein of SARS-CoV Urbani [4]
0.4: Binding of serum 37 to looped/cyclic peptides of protein N of SARS-CoV Urbani [2] | Binding of serum SARS-green to linear peptides of protein N of SARS-CoV Urbani [2] | Binding of serum SARS-yellow to looped/cyclic peptides of protein N of SARS-CoV Urbani [2] | Binding of a rabbit serum to looped/cyclic peptides of protein N of SARS-CoV Urbani (Rabbit serum looped peptides) [3]
0.3: Binding of serum 1a to linear peptides of protein N of SARS-CoV Urbani [2] | Binding of serum 1a to looped/cyclic peptides of protein N of SARS-CoV Urbani [2] | Binding of serum 2 to linear peptides of protein N of SARS-CoV Urbani [2] | Binding of serum 6 to linear peptides of protein N of SARS-CoV Urbani [2] | Binding of serum 62 to looped/cyclic peptides of protein N of SARS-CoV Urbani [2] | Binding of serum London to looped/cyclic peptides of protein N of SARS-CoV Urbani [2]
